The target of one assay is Cholinesterase (Equus caballus, UniProt P81908).
A further assay has as its target Acetylcholinesterase (Electrophorus electricus, UniProt O42275).
The target in assay [1] is Acetylcholinesterase (Electrophorus electricus) (UniProt O42275). Nature of the assay: Ratio of donepezil IC50 to compound IC50 for electric eel acetylcholine esterase.
For assay [2] the target is unchanged. Briefly: Ratio of tacrine IC50 to compound IC50 for electric eel acetylcholine esterase.
Assay [3] has the same target. Nature of the assay: Mixed-type inhibition of electric eel acetylcholine esterase using acetylcholine chloride as substrate at 0.001 to 0.003 uM incubated for 15 mins by Lineweaver Burk plot analysis.

Here are results for 18 compounds from ChEMBL document CHEMBL2040761, “Design, synthesis, and evaluation of indanone derivatives as acetylcholinesterase inhibitors and metal-chelating agents” (Bioorg Med Chem Lett, 2012).

pIC50: −log10 of the molar value. The source made the active and inactive calls. The calls are words filed in the database; no cut-off is given here.

Sequence of Acetylcholinesterase (Electrophorus electricus) (O42275 24-633 limits assumed): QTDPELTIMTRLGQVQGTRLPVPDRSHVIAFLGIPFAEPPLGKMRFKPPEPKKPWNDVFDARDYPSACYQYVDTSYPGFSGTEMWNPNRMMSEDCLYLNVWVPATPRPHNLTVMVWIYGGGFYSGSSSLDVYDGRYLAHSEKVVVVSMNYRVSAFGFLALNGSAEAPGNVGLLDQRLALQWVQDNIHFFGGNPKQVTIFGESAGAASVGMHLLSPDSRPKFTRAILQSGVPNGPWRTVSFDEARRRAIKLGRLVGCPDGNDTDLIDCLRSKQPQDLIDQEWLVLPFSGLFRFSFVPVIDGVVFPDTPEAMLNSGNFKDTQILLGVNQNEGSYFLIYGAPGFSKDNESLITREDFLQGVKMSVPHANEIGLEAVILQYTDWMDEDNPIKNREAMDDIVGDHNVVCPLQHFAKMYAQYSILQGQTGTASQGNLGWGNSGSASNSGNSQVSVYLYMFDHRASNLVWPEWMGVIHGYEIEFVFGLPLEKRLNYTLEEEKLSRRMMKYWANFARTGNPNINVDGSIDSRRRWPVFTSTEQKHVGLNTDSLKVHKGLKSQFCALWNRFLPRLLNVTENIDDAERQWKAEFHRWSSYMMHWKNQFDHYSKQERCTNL
Sequence of Cholinesterase (P81908 whole entry): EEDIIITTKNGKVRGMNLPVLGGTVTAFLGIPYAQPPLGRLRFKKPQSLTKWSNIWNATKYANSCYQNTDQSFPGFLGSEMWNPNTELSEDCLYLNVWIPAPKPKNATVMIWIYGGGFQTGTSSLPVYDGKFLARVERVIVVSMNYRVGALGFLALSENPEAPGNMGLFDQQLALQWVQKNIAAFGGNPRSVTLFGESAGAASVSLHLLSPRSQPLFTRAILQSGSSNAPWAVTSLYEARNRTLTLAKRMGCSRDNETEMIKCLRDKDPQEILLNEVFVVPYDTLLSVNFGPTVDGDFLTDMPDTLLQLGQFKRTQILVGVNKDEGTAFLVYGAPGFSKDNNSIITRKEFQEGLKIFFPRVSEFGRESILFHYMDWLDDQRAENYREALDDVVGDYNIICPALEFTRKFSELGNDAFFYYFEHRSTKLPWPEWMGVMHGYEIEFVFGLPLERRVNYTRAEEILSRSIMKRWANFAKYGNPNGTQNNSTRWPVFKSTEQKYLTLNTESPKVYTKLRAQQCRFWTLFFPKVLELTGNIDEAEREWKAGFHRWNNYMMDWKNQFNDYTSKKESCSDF
Sequence of Acetylcholinesterase (O42275 whole entry): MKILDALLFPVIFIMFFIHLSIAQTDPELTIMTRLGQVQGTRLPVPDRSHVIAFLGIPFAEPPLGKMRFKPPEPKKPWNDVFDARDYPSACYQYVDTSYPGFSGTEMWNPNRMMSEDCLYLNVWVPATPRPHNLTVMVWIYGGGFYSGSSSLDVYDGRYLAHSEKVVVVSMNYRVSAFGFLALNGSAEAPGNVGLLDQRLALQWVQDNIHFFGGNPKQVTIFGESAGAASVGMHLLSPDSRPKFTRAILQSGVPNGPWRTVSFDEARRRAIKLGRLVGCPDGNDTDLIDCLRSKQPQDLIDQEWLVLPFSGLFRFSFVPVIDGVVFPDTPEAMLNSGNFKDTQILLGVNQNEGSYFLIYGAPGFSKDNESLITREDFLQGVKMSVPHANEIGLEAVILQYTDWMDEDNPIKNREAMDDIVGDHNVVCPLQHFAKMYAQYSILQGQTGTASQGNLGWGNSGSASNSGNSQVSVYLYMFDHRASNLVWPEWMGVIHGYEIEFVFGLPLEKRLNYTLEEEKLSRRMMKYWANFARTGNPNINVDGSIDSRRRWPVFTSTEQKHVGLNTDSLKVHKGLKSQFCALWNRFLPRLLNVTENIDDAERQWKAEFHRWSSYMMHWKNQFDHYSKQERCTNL

In general, pIC50 refers to the negative decadic logarithm of the IC50, by convention in mol/L. For `COc1cc2c(cc1OCCCCCN1CCCCC1)C(=O)CC2`, the figures for the pIC50 on Cholinesterase and at Acetylcholinesterase were 3.94 and 6.44, respectively.

On to `CCN(CC)CCCCCCOc1cc2c(cc1OC)C/C(=C/c1ccncc1)C2=O`, for which the values for the pIC50 on Cholinesterase and against Acetylcholinesterase were 4.87 and 6.57, respectively.

With `COc1cc2c(cc1OCCCCCN1CCCCC1)C(=O)/C(=C\c1ccncc1)C2`, the pIC50 at Cholinesterase is 5.04; against Acetylcholinesterase, 6.54.

With `COc1cc2c(cc1OCCCCCCn1ccnc1)C(=O)/C(=C\c1ccncc1)C2`, the pIC50 was 4.73 against Cholinesterase and 5.54 at Acetylcholinesterase.

For `COc1cc2c(cc1OCCN1CCCCC1)C(=O)/C(=C\c1ccccn1)C2`, the pIC50 on Cholinesterase was 5.13; on Acetylcholinesterase, 8.36.

For `CCN(CC)CCCCOc1cc2c(cc1OC)C/C(=C/c1ccncc1)C2=O`, the pIC50 against Cholinesterase is 4.54; against Acetylcholinesterase, 6.69.

As to `COc1cc2c(cc1O)C(=O)CC2`, the figures for the pIC50 on Cholinesterase and against Acetylcholinesterase were 3.59 and 4.04, respectively.

Turning to `COc1cc2c(cc1OCCCCCCN1CCCCC1)C(=O)/C(=C\c1ccncc1)C2`, the results for the pIC50 against Cholinesterase and at Acetylcholinesterase were 5.35 and 6.63, respectively.

As to `COc1cc2c(cc1OCCN1CCCCC1)C(=O)/C(=C\c1ccccc1)C2`, the values for the pIC50 against Cholinesterase and against Acetylcholinesterase were 5.65 and 8.04, respectively.

On to `COc1cc2c(cc1OCCCCCCCCCN1CCCCC1)C(=O)/C(=C\c1ccncc1)C2`, for which the pIC50 at Cholinesterase is 5.91; on Acetylcholinesterase, 6.13.

For the compound `COc1cc2c(cc1O)C(=O)/C(=C\c1ccncc1)C2`, the pIC50 against Cholinesterase is 3.61; on Acetylcholinesterase, 4.30.

With `COc1cc2c(cc1OCCN1CCCCC1)C(=O)/C(=C\c1ccncc1)C2`, the pIC50 is 5.02 against Cholinesterase and 8.74 on Acetylcholinesterase. Moreover, the Ratio IC50 in assay [1] came to 14; in assay [2], 47. Besides, the inhibition result in assay [3] was “Active”.

As to `COc1cc2c(cc1OCCN1CCCCC1)C(=O)C(Cc1ccccc1)C2` (centres undefined), the pIC50 was 5.04 against Cholinesterase and 5.90 on Acetylcholinesterase.

With `COc1cc2c(cc1OCCCCN1CCCCC1)C(=O)/C(=C\c1ccncc1)C2`, the pIC50 was 4.86 on Cholinesterase and 7.09 against Acetylcholinesterase.

For the compound `COc1cc2c(cc1OCCCN1CCCCC1)C(=O)/C(=C\c1ccncc1)C2`, the negative logarithm of the IC50 (pIC50) against Cholinesterase is 4.37; on Acetylcholinesterase it was 7.21.

`COc1cc2c(cc1OCCCCN1CCCC1)C(=O)/C(=C\c1ccncc1)C2`: the results for the pIC50 against Cholinesterase and against Acetylcholinesterase were 4.76 and 6.81, respectively.

Take `COc1cc2c(cc1OCCCN1CCCCC1)C(=O)CC2`: the pIC50 was 4.48 at Cholinesterase and 6.04 on Acetylcholinesterase.

For `COc1cc2c(cc1OCCN1CCCCC1)C(=O)CC2`, the pIC50 at Cholinesterase is 3.86; at Acetylcholinesterase, 5.51.
